Source: article PMC12892976, “Alkylation-based optimization of antifungal FPPS inhibitors yields a potent, broad-spectrum lipophilic zoledronate derivative” (mBio, 2025)
Like-named read-outs stand apart in the source and are kept apart here.

Tests used:
[1] = tested on: Aspergillus fumigatus; assay: checkerboard drug interaction (FICI, MICc);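 on all read-outs here: simplified diagonal checkerboard screen pairing antifungals with FPPS inhibitors against Aspergillus fumigatus, with FICI calculated under the Loewe additivity model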; assay type: cell-based; settings: A. fumigatus; for INH FD (MIC-MICc fold decrease): fold decrease of inhibitor MIC
Procedure: (§1) Drug interactions between antifungals and FPPS inhibitors were investigated using a simplified checkerboard diagonal screening method ([45]). […] FICIs were determined according to the Loewe additivity model ([17]).

[2] = tested on: Cryptococcus deuterogattii; assay: MIC/MFC broth microdilution (CLSI); settings: Cryptococcus deuterogattii;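 further: broth microdilution per CLSI M27-Ed4. MFC is the lowest concentration yielding no colonies when MIC broths are subcultured onto SDA plates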
Procedure: (§2) Antifungal susceptibility was determined by broth microdilution according to the CLSI guidelines described in M27-Ed4 ([16]). […] MFC was determined by back-plating drug-treated cultures from MIC broths onto SDA plates. The MFC was defined as the lowest concentration from which no colonies could be cultured.

[3] = tested on: Aspergillus flavus; assay: checkerboard drug interaction (FICI, MICc);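 further: simplified diagonal checkerboard screen pairing azole antifungals with FPPS inhibitors, FICI calculated under the Loewe additivity model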; assay type: cell-based; parameters: INH MICc (KET:INH) / INH MICc (FLC:INH): unit not given beside the values; settings: A. flavus
[4] = tested on: Saccharomyces cerevisiae; assay: checkerboard drug interaction (FICI, MICc);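 on all read-outs here: simplified diagonal checkerboard screen pairing antifungals with FPPS inhibitors, FICI calculated under the Loewe additivity model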; assay type: cell-based; parameters: INH MICc / INH MICc (ITR:INH) / INH MICc (KET:INH) / INH MICc (FLC:INH): unit not given beside the values; settings: S. cerevisiae; for INH FD (MIC-MICc fold decrease): fold decrease of inhibitor MIC
[5] = tested on: Candida albicans; assay: MIC/MFC broth microdilution (CLSI); assay type: cell-based; settings: Candida albicans SC5314
Procedure: as §2

[6] = tested on: Trichophyton rubrum; assay: checkerboard drug interaction (FICI, MICc);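 further: simplified diagonal checkerboard screen pairing azole antifungals with FPPS inhibitors, FICI calculated under the Loewe additivity model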; assay type: cell-based; settings: T. rubrum
Procedure: as §1

[7] = tested on: eight fungal species; assay: checkerboard interaction with azoles, summary across the eight species; assay type: cell-based; settings: geometric mean MIC in combination with azoles
Text: Synergy between lipophilic FPPS inhibitors and azole antifungals was investigated by determining the fractional inhibitory concentration index (FICI) (Fig. 2; Table S1 Fig. S1) ([17]). […]. Derivatives PLA9 and 11, and PDA9, 11, and 12 antagonized azoles in C. albicans, C. neoformans, and C. deuterogattii, yet were largely synergistic in C. glabrata and S. cerevisiae. […].

[8] = tested on: Candida albicans; assay: checkerboard drug interaction (FICI, MICc);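 on all read-outs here: antifungal plus FPPS inhibitor combinations on Candida albicans tested by a simplified diagonal checkerboard screen, with FICI calculated under the Loewe additivity model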; assay type: cell-based; settings: C. albicans; for INH FD (MIC-MICc fold decrease): fold decrease of inhibitor MIC
Procedure: as §1

[9] = tested on: HEK-293T cells; assay: MTT reduction cytotoxicity assay; assay type: cell-based; settings: Homo sapiens, HEK-293T, 72 h, HEK-293T, MTT, 72 h; read-out: HEK IC50
[10] = tested on: Candida glabrata; assay: checkerboard drug interaction (FICI, MICc);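 on all read-outs here: simplified diagonal checkerboard screen pairing antifungals with FPPS inhibitors, FICI calculated under the Loewe additivity model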; assay type: cell-based; settings: C. glabrata; for INH FD (MIC-MICc fold decrease): fold decrease of inhibitor MIC
Procedure: as §1

[11] = tested on: Cryptococcus neoformans; assay: checkerboard drug interaction (FICI, MICc);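 on all read-outs here: antifungal plus FPPS inhibitor pairs tested against Cryptococcus neoformans by simplified diagonal checkerboard screening, FICI computed under the Loewe additivity model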; assay type: cell-based; settings: C. neoformans; for INH FD (MIC-MICc fold decrease): fold decrease of inhibitor MIC
Procedure: as §1

[12] = tested on: Trichophyton rubrum; assay: MIC/MFC broth microdilution (CLSI); settings: Trichophyton rubrum
Procedure: as §2

[13] = tested on: Cryptococcus deuterogattii; assay: checkerboard drug interaction (FICI, MICc);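 on all read-outs here: simplified diagonal checkerboard screen pairing antifungal drugs with FPPS inhibitors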; assay type: cell-based; settings: C. deuterogattii; for INH FD (MIC-MICc fold decrease): fold decrease of inhibitor MIC
Procedure: as §1

[14] = tested on: Cryptococcus neoformans; assay: MIC/MFC broth microdilution (CLSI); settings: Cryptococcus neoformans;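 further: susceptibility testing followed the CLSI M27-Ed4 broth microdilution document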
Procedure: as §2

[15] = tested on: Saccharomyces cerevisiae; assay: MIC/MFC broth microdilution (CLSI); assay type: cell-based; settings: Saccharomyces cerevisiae S288c
Procedure: as §2

[16] = tested on: Aspergillus fumigatus; assay: MIC/MFC broth microdilution (CLSI); settings: ATCC204305
Procedure: as §2

[17] = tested on: Aspergillus flavus; assay: MIC/MFC broth microdilution (CLSI); settings: ATCC204304
Procedure: as §2

[18] = tested on: Candida glabrata; assay: MIC/MFC broth microdilution (CLSI); settings: Nakaseomyces glabratus, CBS138;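 further: broth microdilution following CLSI M27-Ed4, MFC taken as the lowest drug level yielding no growth once MIC wells were subcultured on SDA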
Procedure: as §2

[19] = tested on: eight fungal species; assay: MIC/MFC summary across the eight fungal species of Table 1; assay type: cell-based
Procedure: The antifungal activity of these compounds was evaluated according to CLSI guidelines ([16]).

[20] = FLC:INH combination, MIC of FLC in combination with the inhibitor
[21] = FLC:INH combination, MIC of the inhibitor in combination with FLC
[22] = FLC:INH combination, fold decrease of FLC MIC
[23] = ITR:INH combination, MIC of ITR in combination with the inhibitor
[24] = ITR:INH combination, MIC of the inhibitor in combination with ITR
[25] = ITR:INH combination, fold decrease of ITR MIC
[26] = KET:INH combination, MIC of KET in combination with the inhibitor
[27] = KET:INH combination, MIC of the inhibitor in combination with KET
[28] = KET:INH combination, fold decrease of KET MIC
[29] = Fractional Inhibitory Concentration Index, fluconazole + inhibitor
[30] = Fractional Inhibitory Concentration Index, itraconazole + inhibitor
[31] = Fractional Inhibitory Concentration Index, ketoconazole + inhibitor
[32] = MIC of the inhibitor in combination with fluconazole
[33] = MIC of the inhibitor in combination with itraconazole
[34] = MIC of the inhibitor in combination with ketoconazole
[35] = MIC-MICc fold decrease of fluconazole, negative = increase
[36] = MIC-MICc fold decrease of itraconazole, negative = increase
[37] = MIC-MICc fold decrease of ketoconazole, negative = increase
[38] = MIC-MICc fold decrease of the inhibitor, with fluconazole
[39] = MIC-MICc fold decrease of the inhibitor, with itraconazole
[40] = MIC-MICc fold decrease of the inhibitor, with ketoconazole

SMILES: CCCCCCCCCCCN1CCC[C@H]1C(=O)N[C@@H](CC(=O)O)C(=O)O [PLA11]
- FICI ([1]; FLC:INH combination): 2
- FLC MICc [1, 20]: 128
- INH MICc [1, 21]: 256
- FLC FD (MIC-MICc fold decrease) [1, 22]: 1
- INH FD (MIC-MICc fold decrease) ([1]; FLC:INH combination): 1
- FICI ([1]; ITR:INH combination): 0.51
- ITR MICc [1, 23]: 0.063
- INH MICc [1, 24]: 2
- ITR FD (MIC-MICc fold decrease) [1, 25]: 2
- INH FD (MIC-MICc fold decrease) ([1]; ITR:INH combination): 128
- FICI ([1]; KET:INH combination): 1.5
- KET MICc [1, 26]: 4
- INH MICc [1, 27]: 128
- KET FD (MIC-MICc fold decrease) [1, 28]: 1
- INH FD (MIC-MICc fold decrease) ([1]; KET:INH combination): 2
- MFC [2]: > 128 µg/mL
- MIC [2]: > 128 µg/mL
- FICI (FLC:INH) [3, 29]: 0.75
- FICI (ITR:INH) [3, 30]: 0.52
- FICI (KET:INH) [3, 31]: 2
- INH MICc (FLC:INH) [3, 32]: 64
- INH MICc (ITR:INH) [3, 33]: 4
- INH MICc (KET:INH) [3, 34]: 256
- FLC FD (FLC:INH) [3, 35]: 2
- ITR FD (ITR:INH) [3, 36]: 2
- KET FD (KET:INH) [3, 37]: 1
- INH FD (FLC:INH) [3, 38]: 4
- INH FD (ITR:INH) [3, 39]: 64
- INH FD (KET:INH) [3, 40]: 1
- FICI ([4]; FLC:INH combination): 0.31
- FLC MICc [4, 20]: 1
- INH MICc [4, 21]: 16
- FLC FD (MIC-MICc fold decrease) [4, 22]: 4
- INH FD (MIC-MICc fold decrease) ([4]; FLC:INH combination): 16
- FICI ([4]; ITR:INH combination): 0.38
- ITR MICc [4, 23]: 0.063
- INH MICc [4, 24]: 32
- ITR FD (MIC-MICc fold decrease) [4, 25]: 4
- INH FD (MIC-MICc fold decrease) ([4]; ITR:INH combination): 8
- FICI ([4]; KET:INH combination): 0.28
- KET MICc [4, 26]: 0.5
- INH MICc [4, 27]: 8
- KET FD (MIC-MICc fold decrease) [4, 28]: 4
- INH FD (MIC-MICc fold decrease) ([4]; KET:INH combination): 32
- MFC [5]: > 128 µg/mL
- MIC [5]: > 128 µg/mL
- FICI (FLC:INH) [6, 29]: 3
- FICI (ITR:INH) [6, 30]: 2
- FICI (KET:INH) [6, 31]: 1.5
- INH MICc (FLC:INH) [6, 32]: 256
- INH MICc (ITR:INH) [6, 33]: 256
- INH MICc (KET:INH) [6, 34]: 128
- FLC FD (FLC:INH) [6, 35]: -2
- ITR FD (ITR:INH) [6, 36]: 1
- KET FD (KET:INH) [6, 37]: 1
- INH FD (FLC:INH) [6, 38]: 1
- INH FD (ITR:INH) [6, 39]: 1
- INH FD (KET:INH) [6, 40]: 2
- GM fungal MICc [7]: 55.4
- FICI ([8]; FLC:INH combination): ≥4
- INH MICc [8, 21]: 256
- FLC FD (MIC-MICc fold decrease) [8, 22]: -4
- INH FD (MIC-MICc fold decrease) ([8]; FLC:INH combination): 1
- FICI ([8]; ITR:INH combination): ≥4
- INH MICc [8, 24]: 256
- ITR FD (MIC-MICc fold decrease) [8, 25]: -4
- INH FD (MIC-MICc fold decrease) ([8]; ITR:INH combination): 1
- FICI ([8]; KET:INH combination): ≥4
- INH MICc [8, 27]: 128
- KET FD (MIC-MICc fold decrease) [8, 28]: < -4
- INH FD (MIC-MICc fold decrease) ([8]; KET:INH combination): 2
- IC50 [9]: > 256 µg/mL
- FICI ([10]; FLC:INH combination): 0.28
- INH MICc [10, 21]: 4
- FLC FD (MIC-MICc fold decrease) [10, 22]: 4
- INH FD (MIC-MICc fold decrease) ([10]; FLC:INH combination): 64
- FICI ([10]; ITR:INH combination): 0.27
- INH MICc [10, 24]: 2
- ITR FD (MIC-MICc fold decrease) [10, 25]: 4
- INH FD (MIC-MICc fold decrease) ([10]; ITR:INH combination): 128
- FICI ([10]; KET:INH combination): 0.27
- INH MICc [10, 27]: 2
- KET FD (MIC-MICc fold decrease) [10, 28]: 4
- INH FD (MIC-MICc fold decrease) ([10]; KET:INH combination): 128
- FICI ([11]; FLC:INH combination): ≥4
- INH MICc [11, 21]: 256
- FLC FD (MIC-MICc fold decrease) [11, 22]: < -4
- INH FD (MIC-MICc fold decrease) ([11]; FLC:INH combination): 1
- FICI ([11]; ITR:INH combination): ≥4
- INH MICc [11, 24]: 256
- ITR FD (MIC-MICc fold decrease) [11, 25]: < -4
- INH FD (MIC-MICc fold decrease) ([11]; ITR:INH combination): 1
- FICI ([11]; KET:INH combination): ≥4
- INH MICc [11, 27]: 128
- KET FD (MIC-MICc fold decrease) [11, 28]: -4
- INH FD (MIC-MICc fold decrease) ([11]; KET:INH combination): 2
- MFC [12]: > 128 µg/mL
- MIC [12]: > 128 µg/mL
- FICI ([13]; FLC:INH combination): ≥4
- INH MICc [13, 21]: 256
- FLC FD (MIC-MICc fold decrease) [13, 22]: -4
- INH FD (MIC-MICc fold decrease) ([13]; FLC:INH combination): 1
- FICI ([13]; ITR:INH combination): ≥4
- INH MICc [13, 24]: 128
- ITR FD (MIC-MICc fold decrease) [13, 25]: -4
- INH FD (MIC-MICc fold decrease) ([13]; ITR:INH combination): 2
- FICI ([13]; KET:INH combination): 1
- INH MICc [13, 27]: 128
- KET FD (MIC-MICc fold decrease) [13, 28]: 2
- INH FD (MIC-MICc fold decrease) ([13]; KET:INH combination): 2
- MFC [14]: > 128 µg/mL
- MIC [14]: > 128 µg/mL
- MFC [15]: > 128 µg/mL
- MIC [15]: > 128 µg/mL
- MFC [16]: > 128 µg/mL
- MIC [16]: > 128 µg/mL
- MFC [17]: > 128 µg/mL
- MIC [17]: > 128 µg/mL
- MFC [18]: > 128 µg/mL
- MIC [18]: > 128 µg/mL
- MFC ([19]; across eight species, read-out: Geometric mean MFC): > 128 µg/mL
- MIC ([19]; geometric mean across eight species, read-out: GM fungal MIC): > 128 µg/mL
- MIC ([19]; read-out: Geometric mean MIC): > 128 µg/mL
